Experimental data reported in patent US12187713B2, “Immunomodulators, compositions and methods thereof” (Betta Pharmaceuticals Co., Ltd, priority 2019, dated 2025).

Assays:
[1] = Pharmacokinetic Assay, single oral dose 5 mg/kg (Table 12); format: in vivo; details: mouse, plasma concentration, C57 female mice, single oral dose 5 mg/kg
Description: Adult C57 female mice were received to single-dose of the test compounds with 15% DMSO, 10% Kolliphor^@HS 15 and 75% saline as excipients, the mice (n=3) were giving oral administration (intragastric administration) with the compounds at a dose of 5 mg/kg. Time of blood collection: 30 min, 2 h, 4 h. approximately 0.1 mL of whole blood was collected from retro-orbital venous plexus, and placed into tubes that contained K2-EDTA as an anticoagulant. The whole blood were centrifuged at 4° C. and 4000 rpm for 10 min. The plasma was transferred into centrifuge tubes, and stored at −20° C. until being analyzed. Concentrations of test compounds in the plasma samples were analyzed with liquid chromatography-tandem mass spectrometry (LC-MS/MS). Plasma concentration-time data of individual animals was analyzed using Microsoft Excel 2010.

PD-1/PD-L1 = PD-1/PD-L1 (Homo sapiens (Human), UniProt Q9NZQ7); experiment: PD-1/PD-L1 Binding Assay (Alphascreen)
Summary of the method: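 PD-1/PD-L1 binding detected by anti-6×His acceptor and streptavidin donor beads after 120 min in the dark at 25 °C. Beforehand, the two proteins were incubated 15 min at 25 °C with inhibitor at 0.015–300 nM (1% DMSO). IC50 comes from a log concentration–response curve.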

Chain of PD-1/PD-L1 (Q9NZQ7 19-238): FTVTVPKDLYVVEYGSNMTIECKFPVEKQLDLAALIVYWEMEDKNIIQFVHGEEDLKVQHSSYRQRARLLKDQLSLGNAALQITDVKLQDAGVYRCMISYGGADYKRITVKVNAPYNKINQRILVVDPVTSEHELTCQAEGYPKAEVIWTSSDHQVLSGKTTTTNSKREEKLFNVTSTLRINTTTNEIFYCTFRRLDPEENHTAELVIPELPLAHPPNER

SMILES	concentration at 0.5 h [1]	concentration at 2 h [1]	concentration at 4 h [1]	IC50 (PD-1/PD-L1; range symbols)	IC50 (PD-1/PD-L1; numeric values)
Cc1c(-c2nc3cc(CN4CCC[C@H]4C(=O)O)c(OC(F)F)cc3o2)cccc1-c1cccc(-c2nc3cc(CN4CC[C@@H](C#N)C4)cc(C#N)c3o2)c1C [Example 165, ((2-(3′-(7-cyano-5-(((R)-3-cyanopyrrolidin-1-yl)methyl)benzo[d]oxazol-2-yl)-2,2′-dimethyl-[1,1′-biphenyl]-3-yl)-6-(difluoromethoxy)benzo[d]oxazol-5-yl)methyl)-L-proline]	376 ng/mL	404 ng/mL	219 ng/mL	0.1 to 5 nM	–
Cc1c(-c2nc3c(o2)CCN(CCCC(F)(F)F)C3)cccc1-c1cccc(-c2nc3cc(CN4CCC[C@H]4C(=O)O)c(OC(F)F)cc3o2)c1C [Example 191, ((6-(difluoromethoxy)-2-(2,2′-dimethyl-3′-(5-(4,4,4-trifluorobutyl)-4,5,6,7-tetrahydrooxazolo[4,5-c]pyridin-2-yl)-[1,1′-biphenyl]-3-yl)benzo[d]oxazol-5-yl)methyl)proline]	520 ng/mL	1170 ng/mL	1330 ng/mL	5 to 50 nM	–
Cc1c(-c2nc3c(o2)CCN(CC2CCO2)C3)cccc1-c1cccc(-c2nc3cc(CN4CCC[C@H]4C(=O)O)c(OC(F)F)cc3o2)c1C (stereo partly drawn) [Example 192, ((6-(difluoromethoxy)-2-(2,2′-dimethyl-3′-(5-(oxetan-2-ylmethyl)-4,5,6,7-tetrahydrooxazolo[4,5-c]pyridin-2-yl)-[1,1′-biphenyl]-3-yl)benzo[d]oxazol-5-yl)methyl)proline]	469 ng/mL	440 ng/mL	268 ng/mL	5 to 50 nM	–
Cc1c(-c2nc3c(o2)CCN(CC#N)C3)cccc1-c1cccc(-c2nc3cc(CN4CCC[C@H]4C(=O)O)c(OC(F)F)cc3o2)c1C [Example 195, ((2-(3′-(5-(cyanomethyl)-4,5,6,7-tetrahydrooxazolo[4,5-c]pyridin-2-yl)-2,2′-dimethyl-[1,1′-biphenyl]-3-yl)-6-(difluoromethoxy)benzo[d]oxazol-5-yl)methyl)proline]	256 ng/mL	255 ng/mL	125 ng/mL	5 to 50 nM	–
CCS(=O)(=O)N1CCc2oc(-c3cccc(-c4cccc(-c5nc6cc(CN7CCC[C@H]7C(=O)O)c(OC(F)F)cc6o5)c4C)c3C)nc2C1 [Example 197, ((6-(difluoromethoxy)-2-(3′-(5-(ethylsulfonyl)-4,5,6,7-tetrahydrooxazolo[4,5-c]pyridin-2-yl)-2,2′-dimethyl-[1,1′-biphenyl]-3-yl)benzo[d]oxazol-5-yl)methyl)proline]	527 ng/mL	741 ng/mL	369 ng/mL	5 to 50 nM	–
Cc1c(-c2nc3c(o2)CCN(CCC(F)(F)F)C3)cccc1-c1cccc(-c2nc3cc(CN4CCC[C@H]4C(=O)O)c(OC(F)F)cc3o2)c1C [Example 198, ((6-(difluoromethoxy)-2-(2,2′-dimethyl-3′-(5-(3,3,3-trifluoropropyl)-4,5,6,7-tetrahydrooxazolo[4,5-c]pyridin-2-yl)-[1,1′-biphenyl]-3-yl)benzo[d]oxazol-5-yl)methyl)proline]	674 ng/mL	1440 ng/mL	1100 ng/mL	> 50 nM	–
Cc1c(-c2nc3c(o2)CCN(CC(F)F)C3)cccc1-c1cccc(-c2nc3cc(CN4CCC[C@H]4C(=O)O)c(OC(F)F)cc3o2)c1C [Example 201, ((2-(3′-(5-(2,2-difluoroethyl)-4,5,6,7-tetrahydrooxazolo[4,5-c]pyridin-2-yl)-2,2′-dimethyl-[1,1′-biphenyl]-3-yl)-6-(difluoromethoxy)benzo[d]oxazol-5-yl)methyl)proline]	428 ng/mL	792 ng/mL	527 ng/mL	> 50 nM	–
Cc1c(-c2nc3c(o2)CCOC3)cccc1-c1cccc(-c2nc3cc(CN4CCC[C@H]4C(=O)O)c(OC(F)F)cc3o2)c1C [Example 203, ((6-(difluoromethoxy)-2-(3′-(6,7-dihydro-4H-pyrano[3,4-d]oxazol-2-yl)-2,2′-dimethyl-[1,1′-biphenyl]-3-yl)benzo[d]oxazol-5-yl)methyl)proline]	819 ng/mL	1030 ng/mL	833 ng/mL	–	12 nM
Cc1c(-c2nc3c(o2)CCC3)cccc1-c1cccc(-c2nc3cc(CN4CCC[C@H]4C(=O)O)c(OC(F)F)cc3o2)c1C [Example 204, ((6-(difluoromethoxy)-2-(3′-(5,6-dihydro-4H-cyclopenta[d]oxazol-2-yl)-2,2′-dimethyl-[1,1′-biphenyl]-3-yl)benzo[d]oxazol-5-yl)methyl)proline]	740 ng/mL	872 ng/mL	820 ng/mL	0.1 to 5 nM	–
Cc1c(-c2nc3c(o2)CCCC3)cccc1-c1cccc(-c2nc3cc(CN4CCC[C@H]4C(=O)O)c(OC(F)F)cc3o2)c1C [Example 205, ((6-(difluoromethoxy)-2-(2,2′-dimethyl-3′-(4,5,6,7-tetrahydrobenzo[d]oxazol-2-yl)-[1,1′-biphenyl]-3-yl)benzo[d]oxazol-5-yl)methyl)proline]	1000 ng/mL	1440 ng/mL	1420 ng/mL	0.1 to 5 nM	–
Cc1c(COc2cc(OCc3cncc(OC(F)F)c3)c(CN3CCC(F)C3)cc2Cl)cccc1-c1cccc(-c2nc3cc(CN4CCC[C@H]4C(=O)O)c(OC(F)F)cc3o2)c1C (stereo partly drawn) [Example 209, ((2-(3′-((2-chloro-5-((5-(difluoromethoxy)pyridin-3-yl)methoxy)-4-((3-fluoropyrrolidin-1-yl)methyl)phenoxy)methyl)-2,2′-dimethyl-[1,1′-biphenyl]-3-yl)-6-(difluoromethoxy)benzo[d]oxazol-5-yl)methyl)-L-proline]	21.4 ng/mL	54.9 ng/mL	19.2 ng/mL	–	1.4 nM

Further lines, results first:

concentration at 0.5 h [1]	concentration at 2 h [1]	concentration at 4 h [1]	IC50 (PD-1/PD-L1; range symbols)	IC50 (PD-1/PD-L1; numeric values)	SMILES
36.9 ng/mL	149 ng/mL	114 ng/mL	–	4.1 nM	COC1CCN(Cc2ccc(-c3cccc(-c4cccc(-c5nc6cc(CN7CCC[C@H]7C(=O)O)c(OC(F)F)cc6o5)c4C)c3C)cc2)C1 (stereo partly drawn) [Example 227, ((6-(difluoromethoxy)-2-(4″-((3-methoxypyrrolidin-1-yl)methyl)-2,2′-dimethyl-[1,1′:3′,1″-terphenyl]-3-yl)benzo[d]oxazol-5-yl)methyl)-L-proline]
36.9 ng/mL	160 ng/mL	156 ng/mL	–	78 nM	Cc1c(-c2nc3cc(CN4CCC[C@H]4C(=O)O)c(OC(F)F)cc3o2)cccc1-c1cccc(-c2ccc(CN3CCCC3)cc2Cl)c1C [Example 231, ((2-(2″-chloro-2,2′-dimethyl-4″-(pyrrolidin-1-ylmethyl)-[1,1′:3′,1″-terphenyl]-3-yl)-6-(difluoromethoxy)benzo[d]oxazol-5-yl)methyl)-L-proline]
143 ng/mL	322 ng/mL	296 ng/mL	–	41 nM	Cc1c(-c2ccc(CN3CCCC3)c(C(F)(F)F)c2)cccc1-c1cccc(-c2nc3cc(CN4CCC[C@H]4C(=O)O)c(OC(F)F)cc3o2)c1C [Example 233, ((6-(difluoromethoxy)-2-(2,2′-dimethyl-4″- (pyrrolidin-1-ylmethyl)-3″-(trifluoromethyl)-[1,1′:3′,1″-terphenyl]-3-yl)benzo[d]oxazol-5-yl)methyl)-L-proline]
58.5 ng/mL	178 ng/mL	186 ng/mL	–	2.7 nM	Cc1c(-c2ccc(CN3CC(C)(C)C3)c(F)c2)cccc1-c1cccc(-c2nc3cc(CN4CCC[C@H]4C(=O)O)c(OC(F)F)cc3o2)c1C [Example 237, ((6-(difluoromethoxy)-2-(4″-((3,3-dimethylazetidin-1-yl)methyl)-3″-fluoro-2,2′-dimethyl-[1,1′:3′,1″-terphenyl]-3-yl)benzo[d]oxazol-5-yl)methyl)-L-proline]
102 ng/mL	234 ng/mL	294 ng/mL	5 to 50 nM	–	Cc1c(-c2ccc(CN3Cc4ccccc4C3)c(F)c2)cccc1-c1cccc(-c2nc3cc(CN4CCC[C@H]4C(=O)O)c(OC(F)F)cc3o2)c1C [Example 241, ((6-(difluoromethoxy)-2-(3″-fluoro-4″- (isoindolin-2-ylmethyl)-2,2′-dimethyl-[1,1′:3′,1″-terphenyl]-3-yl)benzo[d]oxazol-5-yl)methyl)proline]
90.4 ng/mL	223 ng/mL	202 ng/mL	0.1 to 5 nM	–	Cc1c(-c2ccc(CN3CCC(F)C3)cc2)cccc1-c1cccc(-c2nc3cc(CN4CCC[C@H]4C(=O)O)c(OC(F)F)cc3o2)c1C (stereo partly drawn) [Example 242, ((6-(difluoromethoxy)-2-(4″-((3-fluoropyrrolidin-1-yl)methyl)-2,2′-dimethyl-[1,1′:3′,1″-terphenyl]-3-yl)benzo[d]oxazol-5-yl)methyl)proline]
101 ng/mL	237 ng/mL	191 ng/mL	–	3.8 nM	Cc1c(-c2ccc(CN3CCCC3)c(C#N)c2)cccc1-c1cccc(-c2nc3cc(CN4CCC[C@H]4C(=O)O)c(OC(F)F)cc3o2)c1C [Example 245, ((2-(3″-cyano-2,2′-dimethyl-4″-(pyrrolidin-1-ylmethyl)-[1,1′:3′,1″-terphenyl]-3-yl)-6-(difluoromethoxy)benzo[d]oxazol-5-yl)methyl)-L-proline]
